Experimental data from patent publication US7553864B2, “Compounds for the treatment of inflammatory disorders and microbial diseases” (Schering Corporation, priority 2005, dated 2009).

System: LpxC enzyme
Assay: LpxC enzyme assay (RapidFire high-throughput mass spectrometry)
Format: biochemical
Experimental: The standard LpxC assay consists of 0.2 nM LpxC enzyme, 1.0 μM UDP-3-O—(R-3-hydroxymyristoyl)-N-acetylglucosamine, and test compound, in assay buffer and 2% DMSO. Assay buffer is comprised of 25 mM HEPES, pH 7.3, 150 mM NaCl, 2.0 mM DTT, and 0.01% BSA. The enzyme reaction is carried out in a 96-well assay plate, in a final volume of 102 μL. Solutions of test compounds are prepared in 100% DMSO. Reaction additions, in order, are (1) 2.0 μL compound solution, (2) 80 μL of assay buffer, (3) 10 μL of 10 μM UDP-3-O—(R-3-hydroxymyristoyl)-N-acetylglucosamine (in assay buffer) and, (4) 10 μL of LpxC enzyme (20 nM in assay buffer) to initiate the reaction. In positive control reactions, addition (1) has 2.0 μL of 100% DMSO (without compound); these reactions are used as the total signal (TSB) value. Reactions are incubated at room temperature for 60 minutes when 10 μL of 1 N HCl is added to stop the reaction. The plate is shaken by hand for 10 seconds to ensure complete quenching. Assay plates are sealed with foil tape, and stored at −80° C. for 24-48 hr prior to analysis.
The concentrations of substrate and product in the reaction mixtures are determined with BioTrove's proprietary RapidFire™ high-throughput mass spectrometry (HTMS). Assay mixtures are partially purified with reverse phase chromatography, where they are washed with water containing 5 mM ammonium formate and eluted onto the mass spectrometer in 80% acetonitrile, 20% water, and 5 mM ammonium formate. The mass spectrometry peak areas of the substrate and product are measured to determine the concentration of these analytes. The assay signal is the percentage of substrate that is converted to product. Percent inhibition, % I, in test samples is determined from the following equation: […]

[1] = concentration 0.10 (unit not given)
[2] = concentration 0.20 (unit not given)
[3] = concentration 0.39 (unit not given)
[4] = concentration 0.78 (unit not given)
[5] = concentration 1.56 (unit not given)
[6] = concentration 3.13 (unit not given)
[7] = concentration 6.25 (unit not given)
[8] = concentration 12.50 (unit not given)
[9] = concentration 25 (unit not given)
[10] = concentration 50 (unit not given)

SMILES | LpxC enzyme assay rating (% inhibition at indicated concentrations) [1] | LpxC enzyme assay rating (% inhibition at indicated concentrations) [2] | LpxC enzyme assay rating (% inhibition at indicated concentrations) [3] | LpxC enzyme assay rating (% inhibition at indicated concentrations) [4] | LpxC enzyme assay rating (% inhibition at indicated concentrations) [5] | LpxC enzyme assay rating (% inhibition at indicated concentrations) [6] | LpxC enzyme assay rating (% inhibition at indicated concentrations) [7] | LpxC enzyme assay rating (% inhibition at indicated concentrations) [8] | LpxC enzyme assay rating (% inhibition at indicated concentrations) [9] | LpxC enzyme assay rating (% inhibition at indicated concentrations) [10]
CCCc1ccc(NC(=O)[C@H](O)[C@@H](O)C(=O)NC)cc1 [Compound 33] | C (less than 10% inhibition) | C (less than 10% inhibition) | C (less than 10% inhibition) | C (less than 10% inhibition) | B (10-30% inhibition) | B (10-30% inhibition) | B (10-30% inhibition) | C (less than 10% inhibition) | C (less than 10% inhibition) | C (less than 10% inhibition)
CNC(=O)[C@H](O)[C@@H](O)C(=O)Nc1ccc(OCCCN(C)C)cc1 [Compound 40] | C (less than 10% inhibition) | C (less than 10% inhibition) | C (less than 10% inhibition) | B (10-30% inhibition) | C (less than 10% inhibition) | C (less than 10% inhibition) | C (less than 10% inhibition) | B (10-30% inhibition) | B (10-30% inhibition) | C (less than 10% inhibition)
CNC(=O)[C@H](O)[C@@H](O)C(=O)N1CCN(c2cccc3ccccc23)CC1 [Compound 29] | C (less than 10% inhibition) | C (less than 10% inhibition) | C (less than 10% inhibition) | C (less than 10% inhibition) | B (10-30% inhibition) | B (10-30% inhibition) | B (10-30% inhibition) | B (10-30% inhibition) | B (10-30% inhibition) | B (10-30% inhibition)
CCC(C)c1ccc(NC(=O)[C@H](O)[C@@H](O)C(=O)N2CCCC2)cc1 (stereo partly drawn) [Compound 68] | C (less than 10% inhibition) | C (less than 10% inhibition) | C (less than 10% inhibition) | C (less than 10% inhibition) | C (less than 10% inhibition) | B (10-30% inhibition) | B (10-30% inhibition) | C (less than 10% inhibition) | B (10-30% inhibition) | B (10-30% inhibition)
O=C(Nc1ccc(-c2ccc(C(F)(F)F)cc2)cc1)[C@H](O)[C@@H](O)C(=O)N1CCCC1 [Compound 65] | B (10-30% inhibition) | B (10-30% inhibition) | B (10-30% inhibition) | C (less than 10% inhibition) | B (10-30% inhibition) | B (10-30% inhibition) | B (10-30% inhibition) | B (10-30% inhibition) | B (10-30% inhibition) | B (10-30% inhibition)
CCCc1ccc(NC(=O)[C@H](O)[C@@H](O)C(=O)NCCCCl)cc1 [Compound 61] | C (less than 10% inhibition) | C (less than 10% inhibition) | C (less than 10% inhibition) | C (less than 10% inhibition) | C (less than 10% inhibition) | C (less than 10% inhibition) | C (less than 10% inhibition) | C (less than 10% inhibition) | B (10-30% inhibition) | B (10-30% inhibition)
CN(C)CCOc1ccc(NC(=O)[C@H](O)[C@@H](O)C(=O)N(C)C)cc1 [Compound 56] | C (less than 10% inhibition) | B (10-30% inhibition) | C (less than 10% inhibition) | C (less than 10% inhibition) | C (less than 10% inhibition) | C (less than 10% inhibition) | B (10-30% inhibition) | C (less than 10% inhibition) | C (less than 10% inhibition) | C (less than 10% inhibition)
CN(C)C(=O)[C@H](O)[C@@H](O)C(=O)Nc1cccc(C#Cc2ccccc2)c1 [Compound 81] | C (less than 10% inhibition) | C (less than 10% inhibition) | C (less than 10% inhibition) | C (less than 10% inhibition) | C (less than 10% inhibition) | C (less than 10% inhibition) | C (less than 10% inhibition) | C (less than 10% inhibition) | C (less than 10% inhibition) | –
CNC(=O)[C@H](O)[C@@H](O)C(=O)Nc1ccc(-c2cc[nH]n2)cc1 [Compound 42] | C (less than 10% inhibition) | C (less than 10% inhibition) | B (10-30% inhibition) | B (10-30% inhibition) | B (10-30% inhibition) | C (less than 10% inhibition) | B (10-30% inhibition) | B (10-30% inhibition) | B (10-30% inhibition) | C (less than 10% inhibition)
CN(C)C(=O)[C@H](O)[C@@H](O)C(=O)Nc1ccc(-c2ccc3ccccc3c2)cc1 [Compound 82] | C (less than 10% inhibition) | B (10-30% inhibition) | C (less than 10% inhibition) | C (less than 10% inhibition) | C (less than 10% inhibition) | B (10-30% inhibition) | B (10-30% inhibition) | A (greater than 30% inhibition) | A (greater than 30% inhibition) | –
CNC(=O)[C@H](O)[C@@H](O)C(=O)N1CCC(c2ccc3ccccc3c2)CC1 [Compound 36] | C (less than 10% inhibition) | C (less than 10% inhibition) | C (less than 10% inhibition) | C (less than 10% inhibition) | C (less than 10% inhibition) | C (less than 10% inhibition) | C (less than 10% inhibition) | C (less than 10% inhibition) | C (less than 10% inhibition) | C (less than 10% inhibition)
